Key:
[1] = Storage of crystal in polyethylene self-sealing bag, XRPD pattern; assay type: physicochemical; settings: 30-35° C. for 3 months, transparent polyethylene self-sealing bag, 10.0 g
Protocol: In addition, 10.0 g of crystal of compound of formula I of Example 1 was placed in a transparent polyethylene self-sealing bag and allowed to stand at 30-35° C. for 3 months.

[2] = Stability of solid forms in stabilization chamber (appearance or XRPD versus initial solid form); assay type: physicochemical; settings: for Physical stability (solid form): 3.0 g sample, appearance or XRPD compared with initial solid form
Protocol: 3.0 g of ruxolitinib free base in different solid forms was stored in a stabilization chamber, and placed in the condition that the temperature and humidity were controlled to at 25° C., 60% RH, and 40° C., 75% RH for […], respectively. The samples were analyzed by appearance or XRPD to check its solid form and compared with its initial solid form.

| Compound | Stability of crystalline form by XRPD [1] | Stability compared with ruxolitinib foam and amorphous form of Example 5 ([2]; 25° C., 60% RH for 2 hours and 40° C., 75% RH for 8 hours, summary of Table 4) | Physical stability (solid form) ([2]; 25° C./60%-RH, 2 hours) | Physical stability (solid form) ([2]; 40° C./75%-RH, 8 hours) | Physical stability (hygroscopicity observation) ([2]; 25° C./60%-RH, 2 hours) | Physical stability (hygroscopicity observation) ([2]; 40° C./75%-RH, 8 hours) |
| --- | --- | --- | --- | --- | --- | --- |
| N#CC[C@H](C1CCCC1)n1cc(-c2ncnc3[nH]ccc23)cn1 [Compound of Formula I of Example 1, ((3R)-3-cyclopentyl-3-[4-(7H-pyrrolo[2,3-d]pyrimidin-4-yl)pyrazol-1-yl]propionitrile)·2H2O] | remains stable | better stability | No change of solid form | No change of solid form | – | – |
| N#CC[C@H](C1CCCC1)n1cc(-c2ncnc3[nH]ccc23)cn1 [Foam] | – | – | Change of solid form, | Change of solid form, | hygroscopic | hygroscopic |
